Data from patent publication US10034886B2, “GLP-1 receptor modulators” (Celgene International II SÀRL, priority 2014, dated 2018).
Like-named read-outs stand apart in the source and are kept apart here.

Target: T1, GLP-1R (Homo sapiens, UniProt P43220)
T1 construct: host or cells: GLP-1R CRE-bla CHO-K1 cells
Assay: EC20 GLP-1(9-36) PAM cAMP assay: dose response of compound in the presence of fixed concentration of GLP-1(9-36)
Format: cell-based
Conditions: GLP-1R CRE-bla CHO-K1 cells
Outline: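 Positive allosteric modulation read as cAMP accumulation: compound titrations (12 points) combined with an EC20 level of GLP-1(9-36) on CHO-K1 GLP-1R CRE-bla cells, IBMX present, 30 min, 37 °C, pH 7.4 buffer. Luminescence converted to cAMP via standards; non-linear fit gave EC50 and Emax.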

[1] = dose response of compound in presence of fixed concentration of GLP-1(9-36), read-out: EC20 GLP-1(9-36) PAM EC50
[2] = compound dose response with fixed concentration of GLP-1(9-36), read-out: EC20 GLP-1(9-36) PAM EC50

T1 sequence (P43220 24-463): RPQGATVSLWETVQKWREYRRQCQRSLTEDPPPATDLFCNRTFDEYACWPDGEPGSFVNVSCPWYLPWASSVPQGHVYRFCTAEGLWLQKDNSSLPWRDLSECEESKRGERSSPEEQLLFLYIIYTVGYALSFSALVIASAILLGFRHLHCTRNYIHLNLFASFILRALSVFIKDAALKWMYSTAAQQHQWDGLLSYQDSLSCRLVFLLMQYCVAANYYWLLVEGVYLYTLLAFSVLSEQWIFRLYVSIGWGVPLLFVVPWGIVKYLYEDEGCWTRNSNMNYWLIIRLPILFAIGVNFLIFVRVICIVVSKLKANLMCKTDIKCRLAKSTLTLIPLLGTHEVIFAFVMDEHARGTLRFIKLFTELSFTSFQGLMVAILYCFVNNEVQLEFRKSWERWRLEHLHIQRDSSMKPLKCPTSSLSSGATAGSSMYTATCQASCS
T1 sequence (P01275 100-127 partner limits assumed): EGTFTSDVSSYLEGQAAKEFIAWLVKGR

SMILES	EC50 [1] [nM]	EC50 [2] [nM]	further results
CCCCCCCOc1ccc(-c2cnc(-c3ccc(C[C@H](NC(=O)c4ccc(C(C)(C)C)cc4)C(=O)NC(CN(C)C)C(=O)O)cc3)nc2)cc1 (stereo partly drawn) [Compound 447]	800 to 2500	–	–
CCCCCCCOc1ccc(-c2cnc(-c3ccc(C[C@H](NC(=O)c4ccc(C(C)(C)C)s4)C(=O)NC(C(=O)O)c4cccs4)cc3)nc2)cc1 (stereo partly drawn) [Compound 600]	< 800	–	–
CCCCCCCOc1ccc(-c2cnc(-c3ccc(C[C@H](NC(=O)c4ccc(C(C)(C)C)s4)C(=O)N4CC(CN(C)C)C4)cc3)nc2)cc1 [Compound 975]	5000 to 10000	–	–
CCCc1ccc(C2CCCN(c3cnc(-c4ccc(C[C@H](NC(=O)c5ccc(C(C)(C)C)s5)C(=O)N5CC(C(=O)O)C5)cc4)nc3)CC2)cc1 (stereo partly drawn) [Compound 1507]	–	800 to 2500	–
CCCCCCCOc1ccc(-c2cnc(-c3ccc(C[C@H](NC(=O)c4ccc(C(C)(C)C)s4)C(=O)N4CC(CC(=O)O)C4)cc3)nc2)cc1 [Compound 607]	800 to 2500	–	–
CC(C)COc1ccc(-c2cnc(-c3ccc(C[C@H](NC(=O)c4ccc(C(C)(C)C)s4)C(=O)NC(C(=O)O)C(O)c4ccccc4)cc3)nc2)cc1 (stereo partly drawn) [Compound 934]	5000 to 10000	–	–
CCC[C@H]1CC[C@H](C2CCN(c3cnc(-c4ccc(C[C@H](NC(=O)c5ccc(OC(C)C)cc5)C(=O)N5CC(C(=O)O)C5)cc4)nc3)CC2)CC1 [Compound 1535]	–	800 to 2500	–
CCCCCCCOc1ccc(-c2cnc(-c3ccc(C[C@H](NC(=O)c4ccc(OCC)cc4)C(=O)N4CC[C@H](C(=O)O)C4)cc3)nc2)cc1 [Compound 848]	2500 to 5000	–	–
CCC[C@H]1CC[C@H](C2CCN(c3cnc(-c4ccc(C[C@H](NC(=O)c5ccc(C(C)(C)C)s5)C(=O)N[C@H](CN)C(=O)O)cc4)nc3)CC2)CC1 [Compound 1473]	–	< 800	–
C[C@@H](NC(=O)[C@H](Cc1ccc(-c2ncc(-c3ccc(-c4ccccc4)nc3)cn2)cc1)NC(=O)c1ccc(C(C)(C)C)s1)C(=O)O [Compound 1303]	–	5000 to 10000	–
CCCc1ccc(C(=O)N[C@@H](Cc2ccc(-c3ncc(-c4ccc([C@H]5CC[C@H](CC)CC5)cc4)cn3)cc2)C(=O)N2CC(C(=O)O)C2)cc1 [Compound 1156]	< 800	–	–
C[C@@H](NC(=O)[C@H](Cc1ccc(-c2ncc(-c3ccc(C(=O)c4ccccc4)cc3)cn2)cc1)NC(=O)c1ccc(C(C)(C)C)s1)C(=O)O [Compound 993]	2500 to 5000	–	–
CCCCOc1ccc(-c2cnc(-c3ccc(C[C@H](NC(=O)c4ccc(C(C)(C)C)s4)C(=O)N4CC(C(=O)O)C4)cc3)nc2)cc1 [Compound 786]	800 to 2500	–	–
CCCCCCCOc1ccc(-c2cnc(-c3ccc(C[C@H](NC(=O)c4ccc(C(C)(C)C)cc4)C(=O)NC(C(=O)O)c4cccc(C(F)(F)F)c4)cc3)nc2)cc1 (stereo partly drawn) [Compound 545]	< 800	–	–
CCCOc1ccc(-c2ccc(-c3cnc(-c4ccc(C[C@H](NC(=O)c5ccc(C(C)(C)C)s5)C(=O)O)cc4)nc3)c(F)c2)cc1 [Compound 1360]	–	2500 to 5000	–
Cc1cc(C)cc(-c2cnc(-c3ccc(C[C@H](NC(=O)c4ccc(C(C)(C)C)s4)C(=O)N[C@H](C)C(=O)O)cc3)nc2)c1 [Compound 1042]	5000 to 10000	–	–
CCCCCCCOc1ccc(-c2cnc(-c3ccc(C[C@H](NC(=O)c4ccc(C(C)(C)C)cc4)C(=O)N[C@@H](CC(=O)O)C(=O)NC)cc3)nc2)cc1 [Compound 580]	< 800	–	–
CCCCc1ccc(-c2ccc(-c3cnc(-c4ccc(C[C@H](NC(=O)c5ccc(C(C)(C)C)s5)C(=O)N5CC(C(=O)O)C5)cc4)nc3)c(F)c2)cc1 [Compound 1226, (S)-1-(2-(5-(tert-butyl)thiophene-2-carboxamido)-3-(4-(5-(4′-butyl-3-fluoro-[1,1′-biphenyl]-4-yl)pyrimidin-2-yl)phenyl)propanoyl)azetidine-3-carboxylic acid]	–	< 800	–
CC(C)(C)c1ccc(C(=O)NC(Cc2ccc(-c3ncc(N4CCC(c5ccc(Br)cc5)CC4)cn3)cc2)C(=O)N2CC(C(=O)O)C2)s1 (stereo not drawn) [Compound 1487]	–	800 to 2500	–
C[C@@H](NC(=O)[C@H](Cc1ccc(-c2ncc(-c3ccc4c(c3)C(=O)c3ccccc3-4)cn2)cc1)NC(=O)c1ccc(C(C)(C)C)s1)C(=O)O [Compound 1290]	–	2500 to 5000	–
C[C@@H](NC(=O)[C@H](Cc1ccc(-c2ncc(-c3ccc(-c4ccc(Br)cc4)cc3)cn2)cc1)NC(=O)c1ccc(C(C)(C)C)s1)C(=O)O [Compound 1293]	–	< 800	–
Cc1ccc(-c2ccc(-c3cnc(-c4ccc(C[C@H](NC(=O)c5ccc(C(C)(C)C)s5)C(=O)N[C@H](C)C(=O)O)cc4)nc3)cc2)cc1 [Compound 1283]	–	< 800	–
CCCCCCCCOc1ccc(-c2cnc(-c3ccc(C[C@H](NC(=O)c4ccc(C(C)(C)C)cc4)C(=O)NCCC(=O)O)cc3)nc2)cc1 [Compound 712]	800 to 2500	–	–
CCCCCCCOc1ccc(-c2cnc(-c3ccc(C[C@H](NC(=O)c4ccc(C(C)(C)C)s4)C(=O)NCC(=O)NCCC(=O)O)cc3)nc2)cc1 [Compound 487]	< 800	–	–

SMILES	EC50 [1] [nM]	EC50 [2] [nM]	further results
CCCOc1ccc(-c2ccc(-c3cnc(-c4ccc(C[C@H](NC(=O)c5ccc(C(C)(C)C)s5)C(=O)N5CC(C(=O)O)C5)cc4)nc3)c(F)c2)cc1 [Compound 1331]	–	< 800	–
CC(C)(C)c1ccc(-c2cnc(-c3ccc(C[C@H](NC(=O)c4ccc(C(C)(C)C)s4)C(=O)N4CC(C(=O)O)C4)cc3)nc2)cc1 [Compound 783]	800 to 2500	–	–
CCCCCCCOc1ccc(-c2cnc(-c3ccc(C[C@H](NC(=O)c4ccc(C(C)(C)C)s4)C(=O)N4CC[C@H](c5nnn[nH]5)C4)cc3)nc2)cc1 [Compound 886]	–	–	EC50 (EC20 GLP-1(9-36) PAM EC50, dose response of compound in presence of fixed concentration of GLP-1(9-36)): 800 to 2500 nM
CC(C)(C)c1ccc(C(=O)N[C@@H](Cc2ccc(-c3ncc(-c4ccc(-c5ccccc5F)cc4F)cn3)cc2)C(=O)N2CC(C(=O)O)C2)s1 [Compound 1194]	< 800	–	–
CCCCCCCOc1ccc(-c2cnc(-c3ccc(C[C@H](NC(=O)c4cnn(C(C)(C)C)c4)C(=O)NC(C(=O)O)C(O)c4ccccc4)cc3)nc2)cc1 (stereo partly drawn) [Compound 954]	800 to 2500	–	–
CCCOc1ccc(C2CCN(c3cnc(-c4ccc(C[C@H](NC(=O)c5ccc(C(C)(C)C)s5)C(=O)N5CC(C(=O)O)C5)cc4)nc3)CC2)cc1 [Compound 1494]	–	800 to 2500	–
CC(C)(C)c1ccc(C(=O)N[C@@H](Cc2ccc(-c3ncc(-c4ccc([C@H]5CC[C@@H](C(F)(F)F)CC5)cc4)cn3)cc2)C(=O)N2CC(C(=O)O)C2)s1 [Compound 1185]	< 800	–	–
Cc1ccc(-c2ccc(-c3cnc(-c4ccc(C[C@H](NC(=O)c5ccc(C(C)(C)C)s5)C(=O)N5CC(C(=O)O)C5)cc4)nc3)c(F)c2)cc1Cl [Compound 1196]	< 800	–	–
CCCCCCCOc1ccc(-c2cnc(-c3ccc(C[C@H](NC(=O)c4ccc(C(C)(C)C)s4)C(=O)NC4CC(N)C4)cc3)nc2)cc1 (stereo partly drawn) [Compound 603]	800 to 2500	–	–
CCCCCCCOc1ccc(-c2cnc(-c3ccc(C[C@H](NC(=O)c4ccc(C(C)(C)C)s4)C(=O)N[C@@H](CC(=O)O)C(=O)N4CCCCC4)cc3)nc2)cc1 [Compound 529]	< 800	–	–
CCCCCCCOc1ccc(-c2cnc(-c3ccc(C[C@H](NC(=O)c4ccc(C(C)(C)C)cc4)C(=O)N[C@@H](CC(=O)O)C(=O)N(C)CCN(C)C)cc3)nc2)cc1 [Compound 505]	800 to 2500	–	–
C=CCCOc1ccc(-c2cnc(-c3ccc(C[C@H](NC(=O)c4ccc(C(C)(C)C)cc4)C(=O)NCCC(=O)O)cc3)nc2)cc1 [Compound 694]	2500 to 5000	–	–
CC[C@H]1CC[C@H](c2ccc(-c3cnc(-c4ccc(C[C@@H](NC(=O)c5ccc(C(C)(C)C)s5)C(=O)O)cc4)nc3)cc2)CC1 [Compound 1392]	–	800 to 2500	–
CCCCCCOCC1CCN(c2cnc(-c3ccc(C[C@H](NC(=O)c4ccc(C(C)(C)C)cc4)C(=O)NCCC(=O)O)cc3)nc2)CC1 [Compound 693]	5000 to 10000	–	–
C[C@@H](NC(=O)[C@H](Cc1ccc(-c2ncc(-c3ccc(-c4ccc(OC(F)(F)F)cc4)cc3F)cn2)cc1)NC(=O)c1ccc(C(C)(C)C)s1)C(=O)O [Compound 1171]	< 800	–	–
CCCCCCCOc1ccc(-c2cnc(-c3ccc(C[C@H](NC(=O)c4ccc(C(C)(C)C)s4)C(=O)N[C@H](C(=O)O)[C@@H](O)c4ccccc4)cc3)nc2)cc1 [Compound 665]	800 to 2500	–	–
CC(C)Oc1ccc(-c2ccc(-c3cnc(-c4ccc(C[C@H](NC(=O)c5ccc(C(C)(C)C)s5)C(=O)N5CC(C(=O)O)C5)cc4)nc3)c(F)c2)cc1 [Compound 1396]	–	< 800	–
CCCCCCCOc1ccc(-c2cnc(-c3ccc(C[C@H](NC(=O)c4ccc(C(C)(C)C)s4)C(=O)N[C@@H](Cc4cn(C)cn4)C(=O)O)cc3)nc2)cc1 [Compound 593]	< 800	–	–
CCCCCCCOc1ccc(-c2cnc(-c3ccc(C[C@H](NC(=O)c4ccc(C(C)(C)C)s4)C(=O)NC4CCCC(C(=O)O)C4)cc3)nc2)cc1 (stereo partly drawn) [Compound 535]	5000 to 10000	–	–
CCCCCCCOc1ccc(-c2cnc(-c3ccc(CC(NC(=O)c4ccc(C(C)(C)C)s4)C(=O)N[C@@H](CCCNC(=N)N)C(=O)O)cc3)nc2)cc1 (stereo partly drawn) [Compound 425]	2500 to 5000	–	–
CCCOc1ccc(-c2cnc(-c3ccc(C[C@H](NC(=O)c4ccc(C(C)(C)C)s4)C(=O)N4CC(C(=O)O)C4)cc3)nc2)cc1 [Compound 785]	2500 to 5000	–	–
COc1ccc(C2CCN(c3cnc(-c4ccc(CC(NC(=O)c5ccc(C(C)(C)C)s5)C(=O)N5CC(C(=O)O)C5)cc4)nc3)CC2)c(C)c1 (stereo not drawn) [Compound 1483]	–	800 to 2500	–
CCc1ccc(C(=O)N[C@@H](Cc2ccc(-c3ncc(-c4ccc(OCCCC(C)C)cc4)cn3)cc2)C(=O)N2CC(C(=O)O)C2)nc1 [Compound 1245]	–	2500 to 5000	–
CC[C@H]1CC[C@H](c2ccc(-c3cnc(-c4ccc(C[C@H](NC(=O)c5ccc(C6(C)CC6)cc5)C(=O)N5CC(C(=O)O)C5)cc4)nc3)cc2)CC1 [Compound 1159]	< 800	–	–
